From ChEMBL document CHEMBL1157822, “Synthesis and SAR of novel isoquinoline CXCR4 antagonists with potent anti-HIV activity” (Bioorg Med Chem Lett, 2010) come the findings set out here.

Data set [1] has as its system Human immunodeficiency virus 1. Nature of the data set: Antiviral activity against HIV1 3B infected in human HOS cells expressing human CXCR4/CCR5/CD4/pHIV-LTR luciferase assessed as inhibition of viral infection to cells. Type of data set: functional, organism-based. The settings on record: Human immunodeficiency virus 1, 3B.
Data set [2] can be described thus: Cytotoxicity against human HOS cells expressing human CXCR4/CCR5/CD4/pHIV-LTR luciferase. Type of data set: cell-based.
Data set [3] concerns the target T1, C-X-C chemokine receptor type 4 (Homo sapiens, UniProt P61073). Kind of data set: Binding affinity to human CXCR4 expressed in HEK293 cells. It is filed as cell-based.
For data set [4], the target named is T1, C-X-C chemokine receptor type 4. Nature of the data set: Antagonist activity at human CXCR4 expressed in HEK293 cells. It is filed as functional, cell-based.
A short description of data set [5]: Half life in rat at 1 mg/kg, iv. Type of data set: ADME, organism-based. On the set-up: dose 1 mg/kg, route intravenous. Conditions: in vivo.
Data set [6] is described as follows: Clearance in rat at 1 mg/kg, iv. On the set-up: dose 1 mg/kg, route intravenous. Conditions: in vivo. It is filed as ADME, organism-based.
The nature of data set [7]: Volume of distribution in rat at 1 mg/kg, iv. It is filed as ADME, organism-based. Conditions: in vivo. More on the design: dose 1 mg/kg, route intravenous.
Data set [8] is described as follows: Oral bioavailability in rat at 3 mg/kg. Type of data set: ADME, organism-based. The settings on record: in vivo.

Activity calls are given as the source filed them. Where only a bound is given, the exact number is not on record here.

T1 sequence (P61073 whole entry): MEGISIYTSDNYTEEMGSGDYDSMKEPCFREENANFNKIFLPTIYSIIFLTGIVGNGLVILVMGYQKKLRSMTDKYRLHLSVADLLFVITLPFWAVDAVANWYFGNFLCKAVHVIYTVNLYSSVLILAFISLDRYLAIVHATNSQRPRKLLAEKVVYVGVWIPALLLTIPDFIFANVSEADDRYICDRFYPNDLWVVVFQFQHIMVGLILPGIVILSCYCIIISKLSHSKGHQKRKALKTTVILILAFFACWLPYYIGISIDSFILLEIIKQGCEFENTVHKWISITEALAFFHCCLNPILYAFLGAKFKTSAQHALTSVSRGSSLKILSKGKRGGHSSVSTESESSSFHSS

`CN(C)CC(=O)NCc1c(CN(C)[C@H]2CCCc3cccnc32)ncc2ccccc12`: the IC50 in data set [1] came out at 12 nM; in data set [3], 16 nM. Besides, the CC50 in data set [2] was found to be 480 nM. Also, the outcome in data set [4] was Active. In data set [5], this compound gave a half-life of 1.5 h. Further, in data set [6], the clearance worked out at 11 mL/min/kg. This compound registered a Vd in data set [7] of 1.5 L/kg. In addition, the bioavailability in data set [8] came to 10%.
For `NCCCCN(Cc1cccnc1)C1CCCc2cccnc21` (racemic), the IC50 in data set [1] was greater than 20000 nM. The CC50 in data set [2] is greater than 20000 nM.
As for `NCCCCN(Cc1ccc2ccccc2n1)C1CCCc2cccnc21` (racemic), the IC50 in data set [1] was 34 nM. The compound also had a CC50 in data set [2] of 12000 nM.
Consider `CN(C)C(=O)NCCCc1c(CN(C)[C@H]2CCCc3cccnc32)ncc2ccccc12`, for which the IC50 in data set [1] was 38 nM. In data set [2], this compound had a CC50 of 750 nM. Further, the half-life in data set [5] is 3.1 h. Besides, the clearance in data set [6] was 16 mL/min/kg. Also, the Vd in data set [7] is 1.7 L/kg. The bioavailability in data set [8] amounted to 20%.
As for `NCCCCN(Cc1ccccn1)C1CCCc2cccnc21` (racemic), the IC50 in data set [1] came out at 70 nM. Besides, the midpoint of cytotoxicity in data set [2], the CC50, lay at 11000 nM.
Turning to `CN(Cc1cc2ccccc2cn1)[C@H]1CCCc2cccnc21`, the IC50 in data set [1] is 160 nM. The CC50 in data set [2] worked out at 650 nM.
On to `CN(Cc1ncc2ccccc2c1CNC(=N)N)[C@H]1CCCc2cccnc21`, for which, in data set [1], the IC50 came out at 20 nM. For the same compound, half-maximal cytotoxicity in data set [2] (CC50) was put at 9000 nM. This compound showed a half-life in data set [5] of 12 h. In addition, in data set [6], the clearance was determined as 16 mL/min/kg. In data set [7], this compound came in with a Vd of 9 L/kg. In data set [8], this compound registered a bioavailability of 0%.
`CN(C)CCCc1c(CN(C)[C@H]2CCCc3cccnc32)ncc2ccccc12`: the IC50 in data set [1] came out at 5 nM; in data set [3], 3.4 nM. The midpoint of cytotoxicity in data set [2], the CC50, lay at 650 nM. In addition, the outcome in data set [4] was Active. Also, the half-life in data set [5] was 2.9 h. The same compound displayed a clearance in data set [6] of 6.1 mL/min/kg. The same compound showed a Vd in data set [7] of 2.9 L/kg. The bioavailability in data set [8] came to 6%.
As to `CN(Cc1ncc2ccccc2c1CCC#N)[C@H]1CCCc2cccnc21`, in data set [1], the IC50 turned out to be 21 nM. The half-maximal cytotoxic concentration (CC50) in data set [2] was 950 nM.
Taken in the same sequence, the figures for `NCCCCN(Cc1nccc2ccccc12)C1CCCc2cccnc21` (racemic) were 11 nM and 8200 nM.
`CN(Cc1ncc2ccccc2c1CCCN)[C@H]1CCCc2cccnc21`: the IC50 in data set [1] stood at 12 nM. In data set [2], this compound had a CC50 of 1000 nM.
Taken in the same sequence, the figures for `NCCCCN(Cc1nccs1)C1CCCc2cccnc21` (racemic) were 340 nM and 9700 nM.
Consider `NCCCCN(Cc1nc2ccccc2[nH]1)C1CCCc2cccnc21` (racemic), for which the IC50 in data set [1] was found to be 23 nM. Besides, the CC50 in data set [2] stood at 13000 nM. In data set [4], the result was Active.
For `CN(C)Cc1c(CN(C)[C@H]2CCCc3cccnc32)ncc2ccccc12`, in data set [1], the IC50 stood at 48 nM. In data set [2], half-maximal cytotoxicity (CC50) was put at 5900 nM.
Turning to `NCCCCN(Cc1cn2ccccc2n1)C1CCCc2cccnc21` (racemic), the IC50 in data set [1] turned out to be 42 nM. The compound also returned a CC50 in data set [2] greater than 20000 nM.
Taken in the same sequence, the figures for `Cn1cncc1CN(CCCCN)C1CCCc2cccnc21` (racemic) were greater than 20000 nM and greater than 20000 nM.
With `CN(Cc1ncc2ccccc2c1CN)[C@H]1CCCc2cccnc21`, the IC50 in data set [1] came out at 27 nM. In data set [2], the CC50 turned out to be 3100 nM.
Turning to `NCCCCN(Cc1cc2ccccc2cn1)C1CCCc2cccnc21` (racemic), in data set [1], the IC50 turned out to be 12 nM. In data set [2], this compound gave a CC50 of 13000 nM.
Taken in the same sequence, the figures for `CN1CCC[C@@H]1C(=O)NCc1c(CN(C)[C@H]2CCCc3cccnc32)ncc2ccccc12` were 12 nM and 690 nM.
Taken in the same sequence, the figures for `CN(Cc1ncc2ccccc2c1C#N)[C@H]1CCCc2cccnc21` were 72 nM and 1300 nM.
On the same counts, the results for `NCCCCN(Cc1nc2ccccc2s1)C1CCCc2cccnc21` (racemic) are 200 nM and 13000 nM.
Regarding `Cn1ccnc1CN(CCCCN)C1CCCc2cccnc21` (racemic), the IC50 in data set [1] was found to be 120 nM. Besides, the CC50 in data set [2] was greater than 20000 nM.
In the case of `CN(Cc1ncc2ccccc2c1CCCNC(=N)N)[C@H]1CCCc2cccnc21`, the IC50 in data set [1] amounted to 17 nM. In data set [2], this compound showed a CC50 of 6500 nM.
On to `CN(Cc1ncc2ccccc2c1CCCNS(C)(=O)=O)[C@H]1CCCc2cccnc21`, for which, in data set [1], the IC50 was determined as 16 nM. Moreover, the CC50 in data set [2] was 690 nM. The compound further gave a half-life in data set [5] of 5.8 h. The clearance in data set [6] came to 9.5 mL/min/kg. The compound also displayed a Vd in data set [7] of 1.4 L/kg. In addition, the bioavailability in data set [8] amounted to 4%.
In the case of `CN(Cc1ncc2ccccc2c1CNS(C)(=O)=O)[C@H]1CCCc2cccnc21`, the IC50 in data set [1] amounted to 41 nM. Also, in data set [2], it took 2000 nM to reach half-maximal cytotoxicity (CC50).
On the same counts, the results for `CN1CCC[C@H]1C(=O)NCc1c(CN(C)[C@H]2CCCc3cccnc32)ncc2ccccc12` are 44 nM and 540 nM.

One may read the IC50 as the concentration at which inhibition is half-maximal. By CC50 is commonly meant the concentration at which the toxic effect on the cells reaches its halfway point. A high value points to better tolerance by the cells. For orientation: half-life means the time needed for the level to fall by half in the phase considered. Higher therefore signals slow decline. Usually clearance stands for the volume of plasma or blood freed of the substance per unit of time. In general, Vd refers to a proportionality between amount in the body and measured concentration, not a real space. By bioavailability is commonly meant the share of a dose that reaches the circulation, judged against a reference dose that is usually intravenous.
